Measurements: ChEMBL document CHEMBL1201862, “PubChem BioAssay data set” (2004)
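Compound exposure: 48 hours, 5 concentrations, 96-well plates. Abbreviation: GI50, concentration required for 50% inhibition of growth.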 Calls of active or inactive are those of the source. Rule as the data show it: active = GI50 up to about 1.1 µM and inactive = higher.

Assays:
Assay in all cases: DTP human tumour cell line panel, 48 h
M19-MEL = tested on: M19-MEL
SF-539 = tested on: SF-539
RPMI-8226 = tested on: RPMI-8226
OVCAR-4 = tested on: OVCAR-4
HOP-92 = tested on: HOP-92
COLO 205 = tested on: COLO 205
NCI-H522 = tested on: NCI-H522
NCI-H23 = tested on: NCI-H23
OVCAR-5 = tested on: OVCAR-5
UACC-62 = tested on: UACC-62
MOLT-4 = tested on: MOLT-4
SF-295 = tested on: SF-295
SNB-75 = tested on: SNB-75
SK-MEL-5 = tested on: SK-MEL-5
UO-31 = tested on: UO-31
HL-60 = tested on: HL-60
A498 = tested on: A498
DLD-1 = tested on: DLD-1
SW-620 = tested on: SW-620
KM-20L2 = tested on: KM-20L2
IGROV-1 = tested on: IGROV-1
TK-10 = tested on: TK-10
NCI-H460 = tested on: NCI-H460
Malme-3M = tested on: Malme-3M
HT-29 = tested on: HT-29
HOP-62 = tested on: HOP-62
ACHN = tested on: ACHN
CCRF-CEM = tested on: CCRF-CEM
LOX IMVI = tested on: LOX IMVI
SN12C = tested on: SN12C
OVCAR-3 = tested on: OVCAR-3
OVCAR-8 = tested on: OVCAR-8
XF498 = tested on: XF498
SNB-78 = tested on: SNB-78
DMS-273 = tested on: DMS-273
UACC-257 = tested on: UACC-257
SNB-19 = tested on: SNB-19
HCT-116 = tested on: HCT-116
NCI-H226 = tested on: NCI-H226
HCC 2998 = tested on: HCC 2998
DMS-114 = tested on: DMS-114
SK-MEL-2 = tested on: SK-MEL-2
EKVX = tested on: EKVX
SK-MEL-28 = tested on: SK-MEL-28
HCT-15 = tested on: HCT-15
CAKI-1 = tested on: CAKI-1
SF-268 = tested on: SF-268
U-251 = tested on: U-251
KM12 = tested on: KM12
K562 = tested on: K562
A549 = tested on: A549
786-0 = tested on: 786-0
M14 = tested on: M14
RXF 393 = tested on: RXF 393
NCI/ADR-RES = tested on: NCI/ADR-RES
SK-OV-3 = tested on: SK-OV-3
MCF7 = tested on: MCF7
MDA-N = tested on: MDA-N
Hs-578T = tested on: Hs-578T
MDA-MB-231 = tested on: MDA-MB-231
T47D = tested on: T47D
SR = tested on: SR
MDA-MB-435 = tested on: MDA-MB-435
PC-3 = tested on: PC-3
DU-145 = tested on: DU-145
BT-549 = tested on: BT-549

Measured: GI50

CS/C(=N/C(=O)c1ccccc1Cl)SCCS/C(=N\C(=O)c1ccccc1Cl)SC
> 100 µM: HCT-15
inactive: M19-MEL > 100 µM | SF-539 > 100 µM | RPMI-8226 > 100 µM | OVCAR-4 > 100 µM | HOP-92 19.6 µM | COLO 205 > 100 µM | NCI-H522 > 100 µM | NCI-H23 > 100 µM | OVCAR-5 > 100 µM | UACC-62 > 100 µM | MOLT-4 > 100 µM | SF-295 > 100 µM | SNB-75 > 100 µM | SK-MEL-5 > 100 µM | UO-31 > 100 µM | HL-60 > 100 µM | A498 > 100 µM | DLD-1 > 100 µM | SW-620 > 100 µM | KM-20L2 > 100 µM | IGROV-1 > 100 µM | TK-10 > 100 µM | NCI-H460 > 100 µM | Malme-3M > 100 µM | HT-29 > 100 µM | HOP-62 > 100 µM | ACHN > 100 µM | CCRF-CEM > 100 µM | LOX IMVI > 100 µM | SN12C > 100 µM | OVCAR-3 > 100 µM | OVCAR-8 > 100 µM | XF498 > 100 µM | SNB-78 > 100 µM | DMS-273 > 100 µM | UACC-257 > 100 µM | SNB-19 > 100 µM | HCT-116 > 100 µM | NCI-H226 > 100 µM | HCC 2998 > 100 µM | DMS-114 > 100 µM | SK-MEL-2 > 100 µM | EKVX > 100 µM | SK-MEL-28 > 100 µM | CAKI-1 > 100 µM | SF-268 > 100 µM | U-251 > 100 µM | KM12 > 100 µM | K562 > 100 µM | A549 > 100 µM | 786-0 > 100 µM | M14 > 100 µM | RXF 393 > 100 µM

COC(=O)C1C(O)C(C)C(O)C(C)/C=C\C=C(C)C(=O)Nc2c(C)c(OC(C)=O)c3c(c2O)C(=O)C(C)=C2OCOC(=C23)C(C)=CC(C)(O)C(O)C(C)C1O (stereo unspecified)
inactive: SF-539 > 60.5 µM | NCI/ADR-RES 56.9 µM | HOP-92 60.1 µM | COLO 205 17.4 µM | OVCAR-5 > 75 µM | SF-295 62.5 µM | SK-MEL-5 40 µM | UO-31 72.6 µM | HL-60 18.7 µM | A498 63.1 µM | DLD-1 18.3 µM | SW-620 25 µM | KM-20L2 34 µM | IGROV-1 > 75 µM | Malme-3M 45.4 µM | HT-29 21.7 µM | HOP-62 > 75 µM | SK-OV-3 > 75 µM | OVCAR-3 42.4 µM | OVCAR-8 28.6 µM | SNB-78 41.4 µM | DMS-273 52.6 µM | UACC-257 32.1 µM | SNB-19 > 75 µM | HCT-116 26.4 µM | MCF7 20.1 µM | NCI-H226 61.7 µM | DMS-114 19.7 µM | SK-MEL-2 18.1 µM | SK-MEL-28 26.6 µM | CAKI-1 33.7 µM | SF-268 43.9 µM | U-251 60.4 µM

O=C(NNC(=O)c1ccccc1S)c1ccccc1S [BIS(THIOSALICYL)HYDRAZIDE]
6.03 µM: HCT-15
inactive: SF-539 11.7 µM | NCI/ADR-RES 11.3 µM | RPMI-8226 18.4 µM | OVCAR-4 15.6 µM | HOP-92 > 25 µM | COLO 205 11.1 µM | NCI-H23 11.1 µM | OVCAR-5 12.4 µM | UACC-62 9.27 µM | MOLT-4 7.11 µM | SF-295 10.3 µM | MDA-N 18.2 µM | SNB-75 18 µM | SK-MEL-5 23 µM | UO-31 8.43 µM | HL-60 8.79 µM | Hs-578T 45 µM | A498 > 100 µM | MDA-MB-231 > 25 µM | SW-620 11.6 µM | T47D 10.8 µM | SR 13.5 µM | IGROV-1 7.29 µM | MDA-MB-435 14.6 µM | TK-10 > 25 µM | NCI-H460 9.29 µM | PC-3 32.1 µM | Malme-3M 23.7 µM | HT-29 8.47 µM | HOP-62 15.9 µM | SK-OV-3 > 25 µM | DU-145 20.6 µM | ACHN 10.8 µM | CCRF-CEM 1.24 µM | LOX IMVI 9.84 µM | SN12C 13.6 µM | OVCAR-3 9.14 µM | OVCAR-8 12 µM | UACC-257 13.8 µM | SNB-19 23.4 µM | HCT-116 6.79 µM | MCF7 10 µM | NCI-H226 15.5 µM | HCC 2998 5.96 µM | SK-MEL-2 43.9 µM | EKVX 8.34 µM | SK-MEL-28 > 25 µM | BT-549 9.38 µM | CAKI-1 6.93 µM | SF-268 11.2 µM | U-251 15.1 µM | KM12 24.5 µM | K562 14.6 µM | A549 14.3 µM | 786-0 9.42 µM | M14 10.3 µM | RXF 393 22.6 µM
active: NCI-H522 0.0154 µM
